Laboratory results as given in patent US20100015709A1, “Regulating Stem Cell Differentiation By Controlling 2D and 3D Matrix Elasticity” (Trustees of the University of Pennsylvania, priority 2006, published 2010).

How the values were obtained:
[1] = system: MSCs; experiment: MSC morphology (branching, spindle factor, spreading) on collagen-coated gels; type: cell-based, human
Protocol: Cell Culture: Human Mesenchymal Stem Cells (MSCs; Osiris Therapeutics; Baltimore, Md. or Lonza), human osteoblasts (hFOBs; ATCC, Manassas, Va.), primary human skin fibroblasts (FC7) (Engler et al., 2004c, supra), and murine myoblasts (C2C12s; ATCC) were cultured in normal growth media, such as low glucose DMEM (Invitrogen) supplemented with 10% fetal bovine serum (FBS, Sigma) and 1% penicillin/streptomycin (Invitrogen) in regular tissue culture treated flasks (Corning). See also, U.S. Ser. No. 11/351,420. Media was exchanged every other day and cells were used up to passage number nine.
(§1) To inhibit proliferation, cells were exposed to mitomycin C (10 μg/ml) for 2 hr and washed three times with media prior to plating. Blebbistatin (50 μM; EMD Biosciences, Inc., San Diego, Calif.), a NMM II inhibitor, was applied with every media change and was stable in culture media for up to 48 hours, as determined by thin layer chromatography.
(§2) 1) Morphological Changes and Immunofluorescence: Changes in cell shape (<4 days), especially the development of neurite-like branches (Engler et al., 2004c, supra) or spindle-like morphologies (Flanagan et al., 2002, supra), were quantified either by the number of membrane branches per mm of cell or by a “spindle factor,” referring to the major cell axis/minor cell axis, respectively. […]

[2] = system: MSCs, C2C12-myoblasts, hFOB-osteoblasts; experiment: Traction force measurement, cell pre-stress; type: cell-based; details: any matrix
Excerpt: Traction Force Measurements: Adhesive stresses, imposed on the matrix surface by an adherent cell, generate a displacement field from embedded beads within a soft substratum, which can be mapped on the cell if the gel can be approximated as a semi-infinite solid. Briefly, the well characterized traction force method (Butler et al., 2002, supra; Dembo et al., 1999, supra; Wang et al., 2002b, supra) uses bead displacements between images with, and without, the adherent cell to assemble a displacement field and determine Green's strain function given known material properties of the substratum (elastic modulus, Poisson's ratio, etc). The traction field was used to obtain the cell pre-stress, i.e., the net tensile force over the cell-matrix interface carried by the actin cytoskeleton across a cross-sectional area of the cell that balances cell traction forces (Wang et al., 2002b, supra).

[3] = target: myosin light chain kinase (MLCK) (Homo sapiens, UniProt Q15746); details: at concentrations inhibiting NMM II ATPase; cited from earlier work
myosin light chain kinase (MLCK), sequence (Q15746 whole entry): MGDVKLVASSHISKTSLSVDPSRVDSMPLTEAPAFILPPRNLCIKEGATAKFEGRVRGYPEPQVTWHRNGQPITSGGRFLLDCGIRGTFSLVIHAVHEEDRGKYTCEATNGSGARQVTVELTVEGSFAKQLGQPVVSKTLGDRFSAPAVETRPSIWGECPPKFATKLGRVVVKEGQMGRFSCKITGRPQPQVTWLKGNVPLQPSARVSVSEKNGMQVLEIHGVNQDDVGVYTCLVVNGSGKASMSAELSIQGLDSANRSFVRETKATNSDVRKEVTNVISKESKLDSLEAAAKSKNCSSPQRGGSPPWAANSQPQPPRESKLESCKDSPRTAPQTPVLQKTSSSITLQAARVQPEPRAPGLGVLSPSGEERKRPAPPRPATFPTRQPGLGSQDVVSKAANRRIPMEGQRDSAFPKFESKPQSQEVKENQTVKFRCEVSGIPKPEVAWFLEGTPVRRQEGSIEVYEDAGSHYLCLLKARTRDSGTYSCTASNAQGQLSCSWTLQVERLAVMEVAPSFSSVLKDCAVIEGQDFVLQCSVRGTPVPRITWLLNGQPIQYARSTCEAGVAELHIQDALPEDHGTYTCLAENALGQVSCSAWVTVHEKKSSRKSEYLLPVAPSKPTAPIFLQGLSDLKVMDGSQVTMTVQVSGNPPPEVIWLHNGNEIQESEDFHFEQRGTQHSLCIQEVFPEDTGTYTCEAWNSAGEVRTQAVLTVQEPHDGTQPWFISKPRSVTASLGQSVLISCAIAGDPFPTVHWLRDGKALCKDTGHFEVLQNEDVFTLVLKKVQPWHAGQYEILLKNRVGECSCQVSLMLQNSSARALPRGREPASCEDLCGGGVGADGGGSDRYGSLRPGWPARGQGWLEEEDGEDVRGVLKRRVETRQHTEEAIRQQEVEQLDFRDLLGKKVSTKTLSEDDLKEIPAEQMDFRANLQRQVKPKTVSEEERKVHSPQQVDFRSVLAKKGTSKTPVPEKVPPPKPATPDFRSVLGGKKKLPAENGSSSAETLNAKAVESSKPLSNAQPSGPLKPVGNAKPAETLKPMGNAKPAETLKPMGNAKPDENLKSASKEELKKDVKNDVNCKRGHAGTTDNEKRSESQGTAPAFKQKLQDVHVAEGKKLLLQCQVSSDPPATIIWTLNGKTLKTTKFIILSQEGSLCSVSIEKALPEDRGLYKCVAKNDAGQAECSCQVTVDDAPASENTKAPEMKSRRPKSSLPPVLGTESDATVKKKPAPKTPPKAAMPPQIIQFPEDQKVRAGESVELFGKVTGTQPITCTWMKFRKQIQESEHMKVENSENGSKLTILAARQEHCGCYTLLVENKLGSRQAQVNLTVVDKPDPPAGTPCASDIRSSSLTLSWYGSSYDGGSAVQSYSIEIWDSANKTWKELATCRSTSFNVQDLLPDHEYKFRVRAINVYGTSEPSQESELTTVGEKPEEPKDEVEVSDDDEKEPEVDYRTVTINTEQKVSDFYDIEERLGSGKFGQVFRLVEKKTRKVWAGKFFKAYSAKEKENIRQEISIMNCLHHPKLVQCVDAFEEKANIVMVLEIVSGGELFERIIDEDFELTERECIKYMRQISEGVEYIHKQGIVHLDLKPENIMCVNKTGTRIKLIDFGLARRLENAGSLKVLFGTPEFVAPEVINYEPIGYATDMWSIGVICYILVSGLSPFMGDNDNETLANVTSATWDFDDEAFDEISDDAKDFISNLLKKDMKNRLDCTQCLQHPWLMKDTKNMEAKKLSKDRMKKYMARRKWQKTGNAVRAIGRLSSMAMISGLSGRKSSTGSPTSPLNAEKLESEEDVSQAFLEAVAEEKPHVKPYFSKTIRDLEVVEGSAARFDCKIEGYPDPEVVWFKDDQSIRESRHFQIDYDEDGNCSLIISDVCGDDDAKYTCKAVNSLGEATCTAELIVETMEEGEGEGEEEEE

[4] = system: MSCs; experiment: Lineage marker expression (immunofluorescence, western blot, oligonucleotide array); type: cell-based, human; details: blebbistatin 50 μM
Protocol: as §2
Cells were fixed with formaldehyde, incubated in a 5% albumin blocking solution for 1 hour at 37° C., permeabilized with 0.5% Triton-X-100 and incubated overnight at 4° C. in 1:100 dilution of antibodies in PBS. […] Cell morphology and fluorescently labeled cells were examined on a TE300 inverted epi-fluorescent Nikon or Olympus (TIRF) microscope, imaged on a cascade CCD camera (PhotoMetrics, Huntington, Beach, Calif.), and quantified with Scion Image (Scion Corp., Frederick, Md.).
2) Western blotting: Cells (with or without blebbistatin treatment, 50 μM) were also plated on 45×50 mm coverslips to obtain enough cells for western blotting. […] Quantification of western blots was done by Scion Image software. […]

[5] = Stability in culture media by thin layer chromatography; type: physicochemical; details: 50 μM
Protocol: as §1

[6] = system: hMSCs; experiment: Nucleus morphology of hMSCs on gels; type: cell-based, human; details: 11 kPa substrates
Protocol: Immuno-staining, fluorescence microscopy, and image analysis: Cells were fixed for five minutes in a 10% solution of formaldehyde (Sigma) in PBS (Gibco) and subsequently permeabilized with a 0.5% solution of TritonX 100 (Sigma) in PBS followed by rinsing in PBS. Samples were then incubated in a 1:250 solution of the appropriate primary antibody in a 3% solution of BSA (Sigma) in PBS for at least 2 hours at room temperature on a rocker. To remove any unspecifically bound antibodies, the gels were incubated with a 0.5% solution of TritonX 100 for five minutes and rinsed with PBS twice, followed by incubation with secondary antibodies (1:250 in 3% BSA in PBS) and rhodamine-phalloidin (Sigma) for at least one hour on a rocker at room temperature. […]
Cell area A and spindle factor r (ratio of major to minor axis of a fitted ellipse) were determined using the built-in functions of ImageJ (available at http:rsb.info.nih.gov/ij; developed by Wayne Rasband, National Institutes of Health, Bethesda, Md.).
Since matrix elasticity not only influences cell and cytoskeleton morphology, but also the differentiation of hMSCs, and therefore global changes in patterns of gene expression, the morphology of the nucleus was analyzed in terms of projected area A and spindle factor of the projected area r to gain insight into the transduction of mechanical signals from the matrix to the nucleus. […]

[7] = system: MSCs; experiment: 3D hydrogel sandwich overlay, cell morphology; type: cell-based, human; details: treated after the overlay procedure
Protocol: Hydrogel Sandwich Preparation: The whole procedure is performed in a biosafety cabinet to maintain sterility. All equipment used was either sterile or sterilized by UV treatment for one hour. To produce the sandwich-like structures, cells were cultured for a given time on regular 2D substrates supported by 25 mm aminosilanized cover slips, rinsed with PBS and dried of the bulk liquid. 35 μl of the hydrogel mixture was added immediately and the sample was covered with a hydrophobic chlorosilanized glass slip to create a homogenous overlay gel. After one hour the top cover slip was carefully removed and the sandwich rinsed with PBS to remove any unbound residues. Subsequently, the gels were incubated for two hours at 37° C./5.0% CO2 in media supplemented with 1.5% or 2% cysteine (w/v) or iodacetamide solution using a shaker to cap or inactivate any remaining free thiols. […]
Immuno-staining, fluorescence microscopy, and image analysis: Cells were fixed for five minutes in a 10% solution of formaldehyde (Sigma) in PBS (Gibco) and subsequently permeabilized with a 0.5% solution of TritonX 100 (Sigma) in PBS followed by rinsing in PBS. […]
Cell area A and spindle factor r (ratio of major to minor axis of a fitted ellipse) were determined using the built-in functions of ImageJ (available at http:rsb.info.nih.gov/ij; developed by Wayne Rasband, National Institutes of Health, Bethesda, Md.). […]

[8] = system: NMM II ATPase; details: cited from earlier work
[9] = system: vertebrate cells; details: cited from earlier work
[10] = system: MSCs, C2C12-myoblasts, hFOB-osteoblasts; experiment: Creep-test micropipette aspiration, membrane cortical stiffness; type: cell-based
Protocol: Creep-test Micropipette Aspiration: Micropipettes were forged using a deFonbrune-type microforge (Vibratome, St. Louis, Mo.) to a radius of 2-3 μm with an approximately 25° pipette curvature so when mounted in micromanipulators (Nirishige; Japan) at an angle similar to the micropipette's curvature. The end of the pipette was flush with the cell edge. A step pressure drop was imposed on the cell membrane, causing the membrane projection, L, to aspirate into the pipette as a function of time (t), pressure drop (ΔP) and pipette radius (R), as governed by the Sato and coworkers' viscoelastic half-space model (Sato et al., J. Biomech. Eng. 112:263-268 (1990), herein incorporated by reference:
Images of the projection length were taken every 2 seconds in brightfield on a TE300 inverted Nikon microscope and cascade CCD camera (Photometrics), which allowed accurate fitting of the parameters κ, μ′, and τ to the data to determine the elastic and viscous moduli of each membrane.

[11] = system: neuronal motility; details: at mM concentrations; cited from earlier work

Q: Which “average cell shape after inhibition of proliferation” value ([1]; mitomycin C 10 μg/ml for 2 hr before plating) does the source give for `CO[C@@]12[C@H](COC(N)=O)C3=C(C(=O)C(C)=C(N)C3=O)N1C[C@@H]1N[C@@H]12` [mitomycin-C, mitomycin C] here?
A: little impact on average cell shape

Q: Which “development of pre-stress σ” value [2] does the source give for `Cc1ccc2c(c1)C(=O)C1(O)CCN(c3ccccc3)C1=N2` (centres unmarked) [blebbistatin] here?
A: prevented any of the cells from developing

Q: And the “effect on myosin light chain kinase” value [3]?
A: without affecting

Q: What about the “branching, elongation and spreading of MSCs” value ([1]; blebbistatin 50 μM, cells on any substrate) of the same compound?
A: block branching, elongation, and any significant spreading of MSCs

Q: And the “lineage marker expression by MSCs” value [4]?
A: blocked all marker expression

Q: What about the “stability in culture media” value [5] of the same compound?
A: up to 48 hours

Q: And the “matrix-dependent change of nucleus projected area and aspect ratio” value [6]?
A: inhibited

Q: And the “actin stress fibers of cells in sandwich overlay” value [7]?
A: lacked any organized actin stress fibers

Q: And the “spindle factor r of cells in sandwich overlay” value [7]?
A: not significantly different from that of the 2D control

Q: What about the “drug concentration inhibiting NMM II ATPase activity” value [8] of the same compound?
A: < 10 µM

Q: What about the “cell blebbing, directed cell migration and cytokinesis” value [9] of the same compound?
A: blocking cell blebbing and rapidly disrupting directed cell migration and cytokinesis

Q: What about the “development of cortical stiffness κ” value ([10]; any matrix) of the same compound?
A: prevented any of the cells from developing

Q: What about the “softening of cell membranes (membrane cortical stiffness)” value ([10]; micropipette aspiration, all gels) of the same compound?
A: more than 3 fold

Q: With `CC(=O)/C(C)=N/O` [BDM] as the compound, how does the neuronal motility [11] read?
A: block neuronal motility
